Laboratory results as given in the Bradley open melting point set (2014).
Several values for one entry are separate records, joined by “and”; a condition that tells them apart may be missing. Equal entries are not always repeated.

melting point	SMILES
72 °C	C=C(C)C1CC=C(C)/C(=N/O)C1 (stereo not drawn) [(1E)-5-Isopropenyl-2-methyl-2-cyclohexen-1-one oxime]
129 °C	O/N=C(\Cc1ccccc1)c1ccc2ccccc2c1 [(1E)-N-hydroxy-1-(naphthalen-2-yl)-2-phenylethanimine]
244 °C and 245 °C	O=C(/C=C/c1ccc2ccccc2c1)/C=C/c1ccc2ccccc2c1 [(1E,4E)-1,5-Di(2-naphthyl)-1,4-pentadien-3-one]
66 °C	CC1(C)[C@H]2CC[C@]1(CS(=O)(=O)Cl)C(=O)C2 [(1R)-camphor-10-sulfonyl chloride]
178 °C	CC1(C)[C@@H]2CC[C@@]1(C)C(=O)C2 [(1R)-camphor]
200 °C	CC1(C)[C@@H]2CC[C@@]1(C)C(=O)C2=O [(1R)-camphorquinone]
186 °C	CC1(C)[C@@H](C(=O)O)CC[C@@]1(C)C(=O)O [(1R,3S)-camphoric acid]
178 °C	CC1(C)[C@H]2CC[C@]1(C)C(=O)C2 [(1S)-camphor]
-53 °C	C1=C\CCCC\C=C/1 [(1Z,3Z)-Cycloocta-1,3-diene]
84 °C	N#CCc1ccccc1[N+](=O)[O-] [(2-Nitrophenyl)acetonitrile]
113 °C	Nc1cc(Br)ccc1C(O)c1ccccc1 (stereo not drawn) [(2-amino-4-bromophenyl)(phenyl)methanol]
188 °C	O=C(/C=C/c1ccccc1[N+](=O)[O-])c1cccc(O)c1 [(2E)-1-(3-Hydroxyphenyl)-3-(2-nitrophenyl)-2-propen-1-one]
80 °C	O=C(/C=C/c1ccc(-c2ccccc2)o1)c1ccccc1 [(2E)-1-phenyl-3-(5-phenyl-2-furyl)prop-2-en-1-one]
106 °C	N#C/C(=C\c1ccccc1)c1nc2ccccc2s1 [(2E)-2-(1,3-Benzothiazol-2-yl)-3-phenylacrylonitrile]
142 °C	O=C(O)/C=C/c1cccc2c(Br)ccc([N+](=O)[O-])c12 [(2E)-3-(5-bromo-8-nitronaphthalen-1-yl)prop-2-enoic acid]
161 °C	O=C(O)/C(=C/c1cccc2ccccc12)c1ccccc1 [(2E)-3-naphthalen-1-yl-2-phenylprop-2-enoic acid]
-140 °C	C/C=C/CC [(2E)-Pent-2-ene]
27.5 °C	OC[C@@H](O)COCc1ccccc1 [(2R)-3-(Benzyloxy)propane-1,2-diol]
33 °C	C[C@H](O)[C@@H](C)O [(2R,3S)-Butane-2,3-diol]
22.5 °C and 25 °C	C[C@H](O)CN [(2S)-1-amino-2-propanol]
68 °C	CO/C(C)=C(\C#N)c1ccccc1[N+](=O)[O-] [(2Z)-3-methoxy-2-(2-nitrophenyl)but-2-enenitrile]
238 °C	CC(=N/O)/C(C)=N\O [(2Z,3Z)-N,N'-Dihydroxybutane-2,3-diimine]

melting point	SMILES
98 °C	COc1ccc(CC(=O)O)cc1OC [(3,4-Dimethoxyphenyl)acetic acid]
10 °C	OCc1cccc(Oc2ccccc2)c1 [(3-Phenoxyphenyl)methanol]
53 °C	COc1ccc(/C(C)=C/C(C)=O)cc1 [(3E)-4-(4-methoxyphenyl)pent-3-en-2-one]
152 °C	[O-][P+](c1ccccc1)(c1ccccc1)C1C=C(c2ccccc2)C=C(c2ccccc2)O1 (stereo not drawn) [(4,6-diphenyl-2H-pyran-2-yl)(diphenyl)phosphane oxide]
66 °C	COc1cc(CNC(=O)CCCC/C=C/C(C)C)ccc1O [(6E)-N-(4-Hydroxy-3-methoxybenzyl)-8-methylnon-6-enamide]
74.6 °C	CC(C)Cc1ccc(C(C)C(=O)O)cc1 (stereo not drawn) [(+/+)-ibuprofen]
236 °C	O=C4\C=C3/[C@@H]([C@H]2CC[C@]1([C@@H](CC[C@]1(C#C)O)[C@@H]2CC3)CC)CC4 [(-)-levonorgestrel]
67 °C	CCCCc1ccc(/N=N/c2ccc(OCCC)cc2)cc1 [(E)-1-(4-butylphenyl)-2-(4-propoxyphenyl)diazene]
242 °C	O=C(O)/C(=C/c1ccc([N+](=O)[O-])cc1)c1ccc(F)cc1 [(E)-2-(4-Fluorophenyl)-3-(4-nitrophenyl)propenoic acid]
139 °C	[O-]/[N+](=N\c1ccccc1)c1ccc(/N=N/c2ccc(/[N+]([O-])=N/c3ccccc3)cc2)cc1 [(E)-bis{4-[(Z)-phenyl-NNO-azoxy]phenyl}diazene]
47 °C	CC(C)(C)OC(=O)N1CCC[C@@H](O)C1 [(R)-1-boc-3-hydroxypiperidine]
-27 °C	FC(F)(F)c1ccccc1 [(Trifluoromethyl)benzene]
87 °C	N#CC(C#N)=Nc1ccccc1 [(phenylimino)propanedinitrile]
112 °C	O=C(O)CS(=O)(=O)c1ccccc1 [(phenylsulfonyl)acetic acid]
67 °C	[2H]C([2H])([2H])C([2H])([2H])C([2H])([2H])C([2H])([2H])C([2H])([2H])C([2H])([2H])C([2H])([2H])C([2H])([2H])C([2H])([2H])C([2H])([2H])C([2H])([2H])C([2H])([2H])C([2H])([2H])C([2H])([2H])C([2H])([2H])C([2H])([2H])C([2H])([2H])C(=O)O [(~2~H_35_)Octadecanoic acid]
81 °C	CC(N)=O [Acetamide]
257 °C	Nc1nc(=O)c2ncn(COCCO)c2[nH]1 [Aciclovir]
13.5 °C	C=CC(=O)O [Acrylic Acid]
269 °C	C1[C@H]3C[C@@H]2C[C@@H](C[C@H]1C2)C3 [Adamantane]
236 °C	Nc1ncnc2c1ncn2[C@@H]1O[C@H](CO)[C@@H](O)[C@H]1O [Adenosine] [listing 1 of 2 here]
234 °C	Nc1ncnc2c1ncn2[C@@H]1O[C@H](CO)[C@@H](O)[C@H]1O [Adenosine] [listing 2 of 2 here]
220 °C	NC(=O)CCCCC(N)=O [Adipamide]

melting point	SMILES
180 °C	NC12CC3CC(CC(C3)C1)C2 [Amantadine]
150 °C	Nc1ccc(C(=O)O)c(O)c1 [Aminosalicylic Acid]
-55 °C	CCCCCN [Amylamine]
213 °C	O=C(O)c1c2ccccc2cc2ccccc12 [Anthracene-9-carboxylic acid]
216 °C	c1ccc2cc3ccccc3cc2c1 [Anthracene]
112 °C	Cc1cc(=O)n(-c2ccccc2)n1C [Antipyrine]
127 °C	NC(=O)c1ccccc1 [Benzamide]
266 °C	c1ccc2c(c1)ccc1cc3c(ccc4ccccc43)cc12 [Benzo[k]tetraphene]
-13 °C	N#Cc1ccccc1 [Benzonitrile]
21 °C	O=C(OCc1ccccc1)c1ccccc1 [Benzyl Benzoate]
10 °C	NCc1ccccc1 [Benzylamine]
-3 °C	CC(=O)C(C)=O [Biacetyl]
232 °C	O=C(O)CCCC[C@@H]1SC[C@@H]2NC(=O)N[C@@H]21 [Biotin]
18.4 °C	[2H]C([2H])([2H])S(=O)C([2H])([2H])[2H] [Bis[(~2~H_3_)methyl] sulfoxide]
108 °C	CCCCN1CCCCC1C(=O)Nc1c(C)cccc1C (stereo not drawn) [Bupivacaine]
57 °C	OCC#CCO [But-2-yne-1,4-diol]
27.5 °C	NCCCCN [Butane-1,4-diamine]
69 °C	CCCCOC(=O)c1ccc(O)cc1 [Butyl 4-hydroxybenzoate]
-75 °C	CCCCC1CCCCC1 [Butylcyclohexane]
236 °C	Cn1c(=O)c2c(ncn2C)n(C)c1=O [Caffeine] [listing 1 of 2 here]
238 °C	Cn1c(=O)c2c(ncn2C)n(C)c1=O [Caffeine] [listing 2 of 2 here]
106 °C	C[C@H](CS)C(=O)N1CCC[C@H]1C(=O)O [Captopril]

SMILES	melting point
CCCOC1CCC2C3CCC4=CC(=O)CCC4(C)C3CCC12C (stereo not drawn) [17-propoxyandrost-4-en-3-one]	118 °C
C[C@]12CCC(=O)C=C1CC[C@@H]1[C@@H]2CC[C@@]2(C)[C@H]1CC[C@]2(C)O [17a-Methyltestosterone]	163 °C
Cl[C@H]1[C@H](Cl)[C@@H](Cl)[C@H](Cl)[C@H](Cl)[C@H]1Cl [(1R,2R,3R,4R,5S,6S)-1,2,3,4,5,6-Hexachlorocyclohexane]	159 °C
O=C(O)COc1ccc(Cl)cc1Cl [(2,4-Dichlorophenoxy)acetic acid]	138 °C
O=C/C=C/c1ccccc1 [(2E)-3-Phenylacrylaldehyde]	-7 °C
C/C=C/C=O [(2E)-But-2-enal]	-76 °C
CN1CC[C@@H](c2ccc(F)cc2)[C@H](CO)C1 [(3S,4R)-4-(4-fluorophenyl)-1-methyl-3-piperidinemethanol]	96 °C
C[C@]12CC[C@H](O)[C@@H](O)[C@H]1CC[C@@H]1[C@@H]2CC[C@]2(C)C(=O)CC[C@@H]12 [(3beta,4alpha,5beta)-3,4-Dihydroxyandrostan-17-one]	221 °C
C[C@]12CC[C@@H]3O[C@@H]3[C@H]1CC[C@@H]1[C@@H]2CC[C@]2(C)C(=O)CC[C@@H]12 [(3beta,4beta,5beta)-3,4-Epoxyandrostan-17-one]	136 °C
C[C@]12CCC(=O)C[C@H]1CC[C@@H]1[C@@H]2CC[C@]2(C)C(=O)CC[C@@H]12 [(5beta)-Androstane-3,17-dione]	147 °C
C=C[C@H]1C[N@@]2CC[C@H]1C[C@H]2[C@H](O)c1ccnc2ccccc12 [(8alpha,9R)-Cinchonan-9-ol]	200 °C
ClC(Cl)(Cl)c1ccccc1 [(Trichloromethyl)benzene]	-5 °C
Cl/C=C\Cl [(Z)-1,2-Dichloroethene]	-80 °C
CC#N [Acetonitrile]	-46 °C
CC/N=c1/nc(Cl)[nH]/c(=N\C(C)C)[nH]1 [Atrazine]	177 °C
O=Cc1ccccc1 [Benzaldehyde]	-56 °C
c1ccc2c(c1)cc1ccc3cccc4ccc2c1c34 [Benzo[a]pyrene]	176 °C
Oc1ccccc1-c1ccccc1 [Biphenyl-2-ol]	57 °C
ClCBr [Bromo(chloro)methane]	-88 °C
CCBr [Bromoethane]	-119 °C
OCCCCO [Butane-1,4-diol]	18 °C
CCCCC1(CC)C(=O)NC(=O)NC1=O [Butethal]	128 °C
